Assay results as given in publication PMC6390180, “Functionality of membrane proteins overexpressed and purified from E. coli is highly dependent upon the strain” (Scientific Reports, 2019).

Molecular target: T1, PatA/PatB (Streptococcus pneumoniae, UniProt Q8DN70+Q8DN72)
T1 construct: gene ABC-NP; full heterodimer co-expressed from pETDuet-1-PatA/PatB in E. coli C41(DE3), BL21(DE3), T7 express or Lemo21(DE3); His-tagged; inverted membrane vesicles, or purified in LMNG / proteoliposomes
Assay: fluorescence transport assay, inverted membrane vesicles
Assay type: biochemical
Details: 1 µM Hoechst 33342, 2 mM GTP, 2 mM MgCl2, pH 8.0, 25 °C; transported drug

T1 sequence (Q8DN70 entry or part of it): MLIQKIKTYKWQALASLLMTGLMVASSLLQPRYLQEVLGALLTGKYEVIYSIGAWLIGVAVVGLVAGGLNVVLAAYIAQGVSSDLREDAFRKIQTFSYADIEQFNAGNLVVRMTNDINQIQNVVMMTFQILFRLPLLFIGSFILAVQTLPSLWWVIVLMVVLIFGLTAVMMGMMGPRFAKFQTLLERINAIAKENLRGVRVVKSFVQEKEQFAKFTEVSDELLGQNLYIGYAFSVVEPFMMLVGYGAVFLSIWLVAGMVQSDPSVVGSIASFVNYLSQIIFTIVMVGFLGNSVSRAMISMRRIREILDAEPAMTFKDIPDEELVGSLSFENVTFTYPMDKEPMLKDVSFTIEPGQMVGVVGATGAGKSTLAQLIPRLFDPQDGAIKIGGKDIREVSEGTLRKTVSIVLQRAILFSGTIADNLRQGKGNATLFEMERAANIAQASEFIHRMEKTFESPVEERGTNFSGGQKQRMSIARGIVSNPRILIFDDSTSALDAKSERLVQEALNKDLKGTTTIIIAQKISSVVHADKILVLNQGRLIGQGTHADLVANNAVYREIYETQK
T1 sequence (Q8DN72 entry or part of it): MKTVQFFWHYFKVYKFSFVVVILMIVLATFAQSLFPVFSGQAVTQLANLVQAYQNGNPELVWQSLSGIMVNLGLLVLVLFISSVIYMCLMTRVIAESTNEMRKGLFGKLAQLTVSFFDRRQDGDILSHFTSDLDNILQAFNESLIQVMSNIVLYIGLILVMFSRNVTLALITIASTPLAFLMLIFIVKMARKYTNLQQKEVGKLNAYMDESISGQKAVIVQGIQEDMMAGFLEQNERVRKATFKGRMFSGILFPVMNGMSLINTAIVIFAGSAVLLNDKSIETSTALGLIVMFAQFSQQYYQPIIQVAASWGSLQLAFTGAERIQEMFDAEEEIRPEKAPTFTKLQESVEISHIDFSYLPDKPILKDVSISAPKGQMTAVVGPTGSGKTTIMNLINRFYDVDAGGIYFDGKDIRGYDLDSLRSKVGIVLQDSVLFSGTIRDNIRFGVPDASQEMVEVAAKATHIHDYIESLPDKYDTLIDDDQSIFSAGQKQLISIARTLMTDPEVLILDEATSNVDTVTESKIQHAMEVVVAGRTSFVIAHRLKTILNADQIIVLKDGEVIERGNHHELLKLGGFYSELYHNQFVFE

CCOc1ccc(-c2nc3ccc(-c4nc5ccc(N6CCN(C)CC6)cc5[nH]4)cc3[nH]2)cc1 [Hoechst 33342, 2-(4-ethoxyphenyl)-5-(4-methyl-1-piperazinyl)-2,5-bis-1H-benzimidazole]
fluorescence transport assay, inverted membrane vesicles: a fluorescent drug translocated by PatA/PatB
